Values of other authors as cited in PMC9097188, “Design, Synthesis, and Molecular Modeling Studies of a Novel Benzimidazole as an Aromatase Inhibitor” (ACS Omega, 2022).

Biological target: aromatase
Details: 3D-QSAR data set, IC50 converted to pIC50; SI reference list; cited from earlier work

In order of falling “Experimental pIC50” value:
1. N#Cc1ccc([C@H](c2ccc3[nH]ccc3c2)n2ccnc2)cc1 [5R]  7.714
2. N#Cc1ccc(C(c2ccc3[nH]ccc3c2)n2ccnc2)cc1 (centres unmarked) [5S]  7.714
3. Cc1ccc2cc(Cn3ccnc3)n(-c3ccccc3)c2c1 [compound 15]  7.670
4. Cc1ccc2cc(Cn3ccnc3)n(-c3ccc(C#N)cc3)c2c1 [compound 19]  7.568
5. COc1ccc2cc(Cn3ccnc3)n(-c3ccc(F)cc3)c2c1 [compound 21]  7.310
6. COc1ccc(-n2c(Cn3ccnc3)cc3ccccc32)cc1 [compound 12]  7.111
7. CCn1c([C@@H](c2ccc(F)cc2)n2ccnc2)c(C)c2ccccc21 [73R]  6.921
8. CCn1c([C@H](c2ccc(F)cc2)n2ccnc2)c(C)c2ccccc21 [73S]  6.921
9. COc1ccc(-n2c(Cn3ccnc3)cc3ccc(C)cc32)cc1 [compound 17]  6.858
10. COc1ccc(-n2c(Cn3ccnc3)cc3ccc(Cl)cc32)cc1 [compound 26]  6.692
11. Clc1cccc([C@@H](c2ccc3[nH]ccc3c2)n2ccnc2)c1 [3R]  6.527
12. Clc1cccc([C@H](c2ccc3[nH]ccc3c2)n2ccnc2)c1 [3S]  6.527
13. CCn1cc([C@@H](c2ccc(F)cc2)n2ccnc2)c2cc(C#N)ccc21 [76R]  6.495
14. CCn1cc([C@H](c2ccc(F)cc2)n2ccnc2)c2cc(C#N)ccc21 [76S]  6.495
15. CC(C)n1cc([C@@H](c2ccc(F)cc2)n2ccnc2)c2cc(Br)ccc21 [78R]  6.495
16. CC(C)n1cc([C@H](c2ccc(F)cc2)n2ccnc2)c2cc(Br)ccc21 [78S]  6.495
17. CCn1cc([C@H](c2ccc(Cl)cc2Cl)n2cccc2)c2cc(Br)ccc21 [118R]  6.478
18. CCn1cc([C@@H](c2ccc(Cl)cc2Cl)n2cccc2)c2cc(Br)ccc21 [118S]  6.478
19. CCn1cc([C@H](c2ccc(Cl)cc2Cl)n2cncn2)c2cc(Br)ccc21 [120R]  6.206
20. CCn1cc([C@@H](c2ccc(Cl)cc2Cl)n2cncn2)c2cc(Br)ccc21 [120S]  6.206
21. CCn1c([C@@H](c2cccc(Cl)c2)n2ccnc2)c(C)c2cc(Br)ccc21 [69R]  6.027
22. CCn1c([C@H](c2cccc(Cl)c2)n2ccnc2)c(C)c2cc(Br)ccc21 [69S]  6.027
23. CCn1cc([C@@H](c2ccc(F)cc2)n2cncn2)c2cc(Br)ccc21 [119R]  6.016
24. CCn1cc([C@H](c2ccc(F)cc2)n2cncn2)c2cc(Br)ccc21 [119S]  6.016
25. CCn1cc([C@H](c2ccccc2Cl)n2ccnc2)c2cc(Br)ccc21 [121R]  6.009
26. CCn1cc([C@@H](c2ccccc2Cl)n2ccnc2)c2cc(Br)ccc21 [121S]  6.009
27. O[C@@](c1cccnc1)(c1cc2ccccc2o1)c1ccc(Cl)cc1Cl [87R]  5.658
28. O[C@](c1cccnc1)(c1cc2ccccc2o1)c1ccc(Cl)cc1Cl [87S]  5.658
29. CCn1cc([C@@H](c2ccc(F)cc2)n2cncn2)c2cc(Br)ccc21 [123R]  5.149
30. CCn1cc(C(c2ccc(F)cc2)n2cncn2)c2cc(Br)ccc21 (centres unmarked) [123S]  5.149
31. O[C@](c1ccc(Br)cc1)(c1cccnc1)c1cc2ccccc2o1 [85R]  4.600
32. O[C@@](c1ccc(Br)cc1)(c1cccnc1)c1cc2ccccc2o1 [85S]  4.600
